Values belong to the compound of their own block, whether it stands above or below them.
Columns and labels:
[1] = tested on: MV-4-11 subcutaneous xenograft; assay: MV-4-11 subcutaneous xenograft model; assay type: in vivo, NOD/scid mice; details: Azacitidine 3 mg/kg intraperitoneally twice per week for 3 weeks
Description: The subcutaneous cell line xenograft (CDX) models and systemic patient-derived xenograft (PDX) models of AML have been extensively described before. For the subcutaneous MV-4-11 CDX model, 5 × 10^6 MV-4-11 tumor cells harvested from exponential growth phase were mixed with Matrigel (1:1) and then inoculated into the right front flank region of 6- to 7-week-old female NOD/scid mice for tumor development. MV-4-11 tumor-bearing mice were randomized into 5 groups (N = 8) when their tumor volume reached approximately 100 mm^3 and received their designated treatments following randomization. Narazaciclib was administrated intraperitoneally at 100 mg/kg twice per week for 3 weeks, while Azacitidine was administrated intraperitoneally at 3 mg/kg twice per week for 3 weeks. For the subcutaneous Ba/F3-ETV6-CSF1R CDX model, 1 × 10^6 Ba/F3-ETV6-CSF1R tumor cells harvested from exponential growth phase were mixed with Matrigel (1:1) and then inoculated into the right front flank region of 6- to 8-week-old female NOD/scid mice for tumor development. Ba/F3-ETV6-CSF1R tumor-bearing mice were randomized into 5 groups (N = 6) when their tumor volume reached approximately 100 mm^3 and received their designated treatments following randomization. […] Tumor volume and body weight were measured at different time points and tumor growth inhibition (TGI) was used as index to determine the therapeutic efficacy.

[2] = tested on: MV-4-11 subcutaneous xenograft; details: prior knowledge; cited from earlier work
Ba/F3-CSF1R cell line = assay: Ba/F3-CSF1R proliferation assay (CTG); assay type: cell-based, mouse; details: + 100 ng/ml CSF-1
Method: (§1) The recombinant Ba/F3 cell lines overexpressing human CSF1R, or human RBM6-CSF1R, or human ETV6-CSF1R were generated using a retrovirus vector (Kyinno Co., Ltd. Beijing). The recombinant Ba/F3 lines overexpressing human Kras G12C orEGFR-L718Q mutants, and different mutant variants of FLT3 were also similarly created as well. A standard proliferation assay via CTG readout was performed according to the vendor’s instructions (KYinno Biotechnology Co., Ltd. Beijing).

[3] = tested on: Ba/F3-RBM6-CSF1R cell line; assay: Ba/F3-RBM6-CSF1R proliferation assay (CTG); assay type: cell-based, mouse; details: not requiring CSF1
Method: as §1

AM8096 AML-PDX = assay: AM8096 systemic AML-PDX model; assay type: in vivo, NOD/scid mice; details: AM8096, quizartinib
Method: For systemic AML-PDX models, the model establishment and narazaciclib pharmacology experiment were performed essentially as described previously. Briefly, 2 × 10^6 AM7407 cells, or 2 × 10^6 AM7577 cells, or 2 × 10^6 AM5512 cells, or 1.65 × 10^6 AM8096 cells were inoculated intravenously into 4- to 5-week-old female NOD/scid mice for AML development. Engraftment was confirmed by the presence of circulating human CD45+ cells (anti-human CD45 antibody, Cat. 304038, Biolegend) in peripheral blood. Mice with successful engraftment of AML-PDX were randomized into different treatment groups (N = 6) and received their designated treatments. Narazaciclib was administrated orally or intraperitoneally at 10 mg/kg, or 30 mg/kg, or 100 mg/kg every day throughout the study, while Cytarabine was administrated intraperitoneally at 3 mg/kg every day. Following the initiation of designated treatments, leukemic burden was monitored by flow cytometry with anti-human CD45 antibody on the peripheral blood every week as well as on the peripheral blood, bone marrow cells and splenocytes of mice at sacrifice. Mice were sacrifice once the followings are observed: body weight loss over 20%, reduced motility and activity, labored breathing, ruffled coat, hunched back and severe dehydration.

Structure (SMILES): Nc1ncn([C@@H]2O[C@H](CO)[C@@H](O)[C@H]2O)c(=O)n1 [Azacitidine, reference compound]
anti-AML effect (tumor growth) [1]: little anti-AML effect

Structure (SMILES): CNC(=O)c1cc(Oc2ccc(NC(=O)Nc3ccc(Cl)c(C(F)(F)F)c3)cc2)ccn1 [sorafenib]
response of MV-4-11 to FLT3i [2]: responded

Structure (SMILES): CCc1nc(C(N)=O)c(Nc2ccc(N3CCC(N4CCN(C)CC4)CC3)c(OC)c2)nc1NC1CCOCC1 [gilteritinib]
response of MV-4-11 to FLT3i [2]: responded

IC50 (Ba/F3-CSF1R cell line; Mus musculus): ~3.88 nM
IC50 ([3]; Mus musculus): 147 nM
Structure (SMILES): FC(F)(F)c1ccc(CNc2ccc(Cc3c[nH]c4ncc(Cl)cc34)cn2)cn1 [Pexidartinib, pexidartinib, reference compound]

Structure (SMILES): CC(C)(C)c1cc(NC(=O)Nc2ccc(-c3cn4c(n3)sc3cc(OCCN5CCOCC5)ccc34)cc2)no1 [quizartinib, reference compound]
response of model (AM8096 AML-PDX): responded poorly
response of MV-4-11 to FLT3i [2]: responded

IC50 (Ba/F3-CSF1R cell line): 59.5 nM
IC50 [3]: 344 nM
Structure (SMILES): COc1ccc(COc2ccc(Cc3cnc(N)nc3N)cc2OC)cc1 [GW2580, reference compound]

Reference: paper PMC11031590, “Narazaciclib, a novel multi-kinase inhibitor with potent activity against CSF1R, FLT3 and CDK6, shows strong anti-AML activity in defined preclinical models” (Scientific Reports, 2024)
